Laboratory results as given in ChEMBL document CHEMBL5113385, “Natural products and synthetic analogues against HIV: A perspective to develop new potential anti-HIV drugs” (Eur J Med Chem, 2022).

Assays:
C8166 = experiment: Cytotoxicity against human C8166 cells assessed as reduction in cell viability by MTT assay; type: functional
[1] = target: T1, Human immunodeficiency virus type 1 reverse transcriptase (Human immunodeficiency virus 1, UniProt Q72547); experiment: Inhibition of HIV-1 LTR reverse transcriptase infected in human CEM cells using RNA template incubated for 1 hr by RT-PCR based cell-free assay
[2] = Inhibition of wild-type HIV-1 BH10 reverse transcriptase-associated RNase H expressed in Escherichia coli using [gamma-32P]ATP-labeled 31Trna/21P as template/primer preincubated for 5 mins followed by template/primer addition by PAGE analysis; set-up: species or system Human immunodeficiency virus 1
[3] = tested on: Human immunodeficiency virus 1; experiment: Antiviral activity against HIV-1 MC99 harboring deltaTat/Rev infected in human 1A2 cells assessed as reduction in syncytium formation preincubated for 1 hr followed by virus infection measured after 3 days by inverted microscopy; type: functional, organism-based; details: Human immunodeficiency virus 1, MC99, 1A2
[4] = Selectivity index, ratio of IC50 for human 1A2 cells to EC50 for HIV-1 MC99 harboring deltaTat/Rev infected in human 1A2 cells; type: toxicity, cell-based; details: read-out: Ratio IC50/EC50
[5] = tested on: Human immunodeficiency virus 1; experiment: Antiviral activity against HIV-1 infected in human CEM-GFP cells assessed as inhibition of viral replication incubated for 68 hrs by MTT assay; type: functional, organism-based; details: Human immunodeficiency virus 1, CEM-GFP
[6] = target: Human immunodeficiency virus type 1 reverse transcriptase (Human immunodeficiency virus 1) (UniProt Q72547); experiment: Inhibition of HIV-1 reverse transcriptase using […] and oligo d(T)16 as primer at 200 ug/ml incubated for 1 hr by PicoGreen DNA fluorescence assay relative to control; details: dose 200.0 µg/ml
[7] = target: Human immunodeficiency virus type 1 reverse transcriptase (Human immunodeficiency virus 1) (UniProt Q72547); experiment: Inhibition of HIV-1 reverse transcriptase at 200 ug/ml using poly(A) ribonucleotide as template and oligo d(T)16 as primer incubated for 1 hr by PicoGreen DNA fluorescence assay relative to control; details: dose 200.0 µg/ml
[8] = tested on: Human immunodeficiency virus 1; experiment: Antiviral activity against HIV-1 assessed as viral growth inhibition; type: functional, organism-based
[9] = target: Human immunodeficiency virus type 1 protease (Human immunodeficiency virus 1) (UniProt Q72874); experiment: Inhibition of HIV-1 protease relative to control; details: concentration not given here
[10] = target: Human immunodeficiency virus type 1 reverse transcriptase (Human immunodeficiency virus 1) (UniProt Q72547); experiment: Inhibition of recombinant HIV-1 reverse transcriptase at 200 ug/ml by ELISA relative to control; details: dose 200.0 µg/ml
[11] = tested on: Human immunodeficiency virus 1; experiment: Antiviral activity against HIV-1 NL4-3 infected in human MT4 cells assessed as reduction in viral replication incubated for 48 hrs followed by addition of fresh medium containing compound measured after 2 days by ELISA; type: functional, organism-based; details: Human immunodeficiency virus 1, NL4-3, MT4, 48 h
[12] = tested on: Human immunodeficiency virus 1; experiment: Antiviral activity against HIV-1 NL4-3 infected in human TZM-bl cells assessed as viral growth inhibition by luciferase assay; type: functional, organism-based; details: Human immunodeficiency virus 1, NL4-3, TZM-bl
[13] = target: T1, Human immunodeficiency virus type 1 reverse transcriptase; experiment: Inhibition of HIV-1 reverse transcriptase preincubated for 45 mins followed by substrate addition by immunoassay
[14] = target: T1, Human immunodeficiency virus type 1 reverse transcriptase; experiment: Inhibition of recombinant HIV-1 reverse transcriptase using ABTS as substrate incubated for 1 hr by ELISA
[15] = target: T1, Human immunodeficiency virus type 1 reverse transcriptase; experiment: Inhibition of wild-type HIV-1 reverse transcriptase by Picogreen assay
[16] = tested on: Human immunodeficiency virus 1; experiment: Antiviral activity against HIV-1 IIIB infected in human MT4 cells assessed as reduction in cytopathic effect measured after 5 days by Cell Titer Glo assay; type: functional, organism-based; details: Human immunodeficiency virus 1, IIIB, MT4, 120 h
[17] = tested on: Human immunodeficiency virus 1; experiment: Antiviral activity against HIV-1 infected in PBMC (unknown origin) assessed as viral growth inhibition; type: functional, organism-based; details: Human immunodeficiency virus 1, PBMC
[18] = target: Human immunodeficiency virus type 1 reverse transcriptase (Human immunodeficiency virus 1) (UniProt Q72547); experiment: Displacement of [3H]TTP/polyA from HIV-1 reverse transcriptase at 200 ug/ml relative to control; details: dose 200.0 µg/ml
[19] = target: Human immunodeficiency virus type 1 integrase (Human immunodeficiency virus 1, UniProt Q7ZJM1); experiment: Inhibition of recombinant HIV-1 subtype C integrase using double-stranded FITC-labelled target DNA as substrate pre-incubated for 45 mins followed by substrate addition measured after 60 mins by strand transfer inhibition assay
Sequence of Human immunodeficiency virus type 1 integrase (Q7ZJM1 whole entry): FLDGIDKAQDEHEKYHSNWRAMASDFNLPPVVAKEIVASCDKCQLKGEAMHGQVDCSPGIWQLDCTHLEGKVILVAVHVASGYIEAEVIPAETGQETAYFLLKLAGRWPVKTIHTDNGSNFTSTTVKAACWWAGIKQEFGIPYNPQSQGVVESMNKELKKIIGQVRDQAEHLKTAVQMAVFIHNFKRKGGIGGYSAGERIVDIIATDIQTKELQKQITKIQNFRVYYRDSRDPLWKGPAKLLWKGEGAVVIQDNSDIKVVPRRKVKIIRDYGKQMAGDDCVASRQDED

[20] = tested on: Human immunodeficiency virus; experiment: Antiviral activity against HIV infected in human PBMC assessed as inhibition of viral infection at MOI of 0.5 incubated for 48 hrs followed by removal of infected supernatant and subsequent addition of supernatant to human LC-5 cells expressing DsRed1 measured after 72 hrs by EASY-HIT assay; type: functional, organism-based; details: Human immunodeficiency virus 1, PBMC
[21] = tested on: Human immunodeficiency virus 1; experiment: Antiviral activity against HIV-1 infected in human C8166 cells assessed as reduction in virus-induced cytopathic effect by MTT assay; type: functional, organism-based; details: Human immunodeficiency virus 1, C8166
[22] = target: T1, Human immunodeficiency virus type 1 reverse transcriptase; experiment: Inhibition of HIV-1 reverse transcriptase using ABTS as substrate and RNA template primed with oligo(dT)12-18 in presence of digoxigenin/biotin-labeled nucleotides by ELISA

CO[C@H](Cc1cc2ccc(=O)oc2cc1O)C(C)(C)O
CC50 (C8166): > 200000 nM

C=CCOCc1cn(C2CCON2C(=O)OCc2ccccc2)c(=O)[nH]c1=O (stereo not drawn)
IC50 [1]: 10 nM

Nc1ccc(S(=O)(=O)N2CCN(C(=O)c3cc(O)c(O)c(O)c3)CC2)cc1
IC50 [2]: 720 nM

COc1cc2c(c(O)c1OC)C(=O)C[C@@H](c1cc(O)c(OC)c(O)c1)O2
EC50 [3]: < 8020 nM | selectivity ratio [4]: 1.12

Cc1cc(=O)c2ccc(N=C=S)cc2o1
IC50 [5]: 1000 nM

COc1cc(OC)c([C@@H]2CC[C@H]3C[C@@H](c4cc(OC)c(OC)cc4OC)Oc4cc(OC)c(O)c2c43)cc1OC
inhibition [6]: 41.4% | inhibition [7]: 41.4% | selectivity ratio [4]: 3.7

C=CC(C)(C)c1cc2cc3c(c(CC=C(C)C)c2oc1=O)O[C@H](C(C)(C)O)C3
CC50 (C8166): > 200000 nM

CC1=C(C(=O)OCc2ccccc2)C(c2ccc(Cl)c([N+](=O)[O-])c2)NC(=O)N1 (stereo not drawn)
IC50 [8]: 15 µg/mL

CCn1cc(C(=O)O)c(=O)c2cc(F)c(N3CCN(S(=O)(=O)c4ccc(OC)cc4)CC3)cc21
IC50 [8]: 50 nM

CC(C)=CCc1cc2ccc(=O)oc2c(CC=C(C)C)c1O
CC50 (C8166): > 200000 nM

C=C(C)[C@@H]1CC[C@@H]2[C@]3(CC[C@]4(C)[C@@H]([C@H](C)CC/C=C(/C)C(=O)O)CC[C@@]24C)C[C@]13CCC(=O)O
inhibition [9]: 89.2%

O=C1C[C@@H](c2ccc(O)cc2)Oc2cc(O)cc(O)c21
inhibition [10]: 44.2%

C=C(C)[C@]12C[C@@H](COC(C)=O)[C@@]34OC5(O[C@@H]1[C@@H]3[C@@H]1O[C@]1(CO)[C@@H](O)[C@@]1(O)[C@H]4[C@H]([C@H](C)[C@@H]1C(=O)c1ccccc1)[C@H](C)C[C@H](C(=O)c1ccccc1)[C@H](OC(C)=O)[C@@H](C(=O)c1ccccc1)CC[C@H]5O)O2
IC50 [11]: ≤ 0.25 nM

C=C(C)[C@@H]1Cc2c(cc3oc(=O)ccc3c2O)O1
CC50 (C8166): > 200000 nM

COc1cc([C@@H]2CC(=O)c3c(cc(OC)c(OC)c3O)O2)cc(OC)c1OC
EC50 [3]: 172000 nM | selectivity ratio [4]: 1.12

C#CCOCc1cn(C2CCON2C(=O)OCc2ccccc2)c(=O)[nH]c1=O (stereo not drawn)
IC50 [1]: 50 nM

CCCCCOC(=O)C[C@H](NP(=O)(CO[C@@H](CF)Cn1ccc2c(=O)[nH]c(N)nc21)Oc1ccccc1)C(=O)OCCCCC (stereo partly drawn)
IC50 [12]: 2000 nM

O=C1CSC(c2ccc(F)cc2)N1c1nc2c(Cl)cccc2s1 (stereo not drawn)
IC50 [13]: < 1 nM

O=C(O)[C@]1(O)C[C@H](O)[C@@H](O)[C@@H](O)C1
IC50 [14]: 280000 nM

CC(C)(O)C(=O)Cc1cc2ccc(=O)oc2cc1O [PEUCEDANONE]
CC50 (C8166): > 200000 nM

C=C(CO)[C@@H]1Cc2cc3ccc(=O)oc3cc2O1
CC50 (C8166): > 200000 nM

CC(C)=CCc1cc(/C=C/C(=O)O)cc(CC=C(C)C)c1
inhibition [10]: 41.6%

N#Cc1ccc2c(Oc3ccccc3OCCn3ccc(=O)[nH]c3=O)cc(F)cc2c1
IC50 [15]: 4.8 nM

O=c1c(O)c(-c2ccc(O)c(O)c2)oc2cc(O)cc(O)c12
inhibition [10]: 43.4%

COc1cc(F)c(Nc2cc(N)nc(Nc3ccc(C#N)cc3)n2)c(F)c1
IC50 [16]: 2 nM

COc1cc(-c2oc3cc(O)cc(O)c3c(=O)c2O)ccc1O
inhibition [10]: 57%

COc1cc(O)c(-c2c(C)cc(O)c3c2Cc2cccc(O)c2C3=O)c(O)c1C(C)=O
EC50 [17]: 4300 nM

COc1cc2cc3c(cc2oc1=O)OC(C)(C)CC3
CC50 (C8166): > 200000 nM

O=c1cc(-c2ccc(O)c(O)c2)oc2c([C@@H]3O[C@H](CO)[C@@H](O)[C@H](O)[C@H]3O)c(O)cc(O)c12
inhibition [18]: 52%

CC1=C(C(=O)OCc2ccccc2)C(c2cccc(C(F)(F)F)c2)NC(=O)N1 (stereo not drawn)
IC50 [8]: 15 µg/mL

CC(=O)N[C@H]1[C@H](O[C@H]2CC[C@]3(C)[C@H]4CC=C5[C@@H]6CC(C)(C)CC[C@]6(C(=O)O)CC[C@@]5(C)[C@]4(C)CC[C@H]3C2(C)C)O[C@H](CO)[C@@H](O)[C@@H]1O
IC50 [19]: 18300 nM

C=CC(C)(C)c1cc2cc3c(cc2oc1=O)O[C@H](C(C)(C)O)[C@H]3O
CC50 (C8166): > 200000 nM

COc1cc(F)c(C(=O)c2cc(N)nc(Nc3ccc(C#N)cc3)n2)c(F)c1
IC50 [16]: 4.2 nM

C=C(C)[C@]12C[C@@H](COC(C)=O)[C@@]34OC5(O[C@@H]1[C@@H]3[C@@H]1O[C@]1(CO)[C@@H](O)[C@@]1(O)[C@H]4[C@H]([C@H](C)[C@@H]1C(=O)c1ccccc1)[C@H](C)C[C@H](C(=O)c1ccccc1)[C@H](C(=O)c1ccccc1)CCC[C@H]5O)O2
IC50 [11]: ≤ 0.25 nM

O=c1cc(-c2ccc(O)cc2)oc2c([C@@H]3O[C@H](CO)[C@@H](O)[C@H](O)[C@H]3O)c(O)cc(O)c12
inhibition [18]: 56.9%

C=C(C)[C@@H]1CC[C@@H]2[C@]3(CC[C@]4(C)/C(=C(\C)CC/C=C(/C)C(=O)O)CC[C@@]24C)C[C@]13CCC(=O)O
inhibition [9]: 85%

COc1oc(C2C/C(=C/C(C)=C/c3ccc(C(F)(F)F)cc3)CO2)c(C)c(=O)c1C (stereo not drawn)
IC50 [20]: < 45 nM

COc1cc(F)c(Oc2cc(N)nc(Nc3ccc(C#N)cc3)n2)c(F)c1
IC50 [16]: 3 nM

C=CC(CO)[C@@H]1C[C@H]2c3[nH]c4ccccc4c3CCN2C(=O)[C@H]1CO (stereo partly drawn)
EC50 [21]: 12200 nM

CCCCC/C=C\C=C/O[C@@]12[C@@H]([C@H]3OCO[C@@]3(C(C)=O)[C@H](OC(C)=O)[C@H]1C)[C@@H]1O[C@]1(CO)[C@@H](O)[C@]1(O)C(=O)C(C)=C[C@H]12
IC50 [11]: 0.9 nM

CC(=O)[C@@H]1Cc2cc3ccc(=O)oc3cc2O1
CC50 (C8166): > 200000 nM

O=C(OCc1ccccc1)N1OCCC1n1cc(COCc2ccccc2)c(=O)[nH]c1=O (stereo not drawn)
IC50 [1]: 1000 nM

CC1(C)CCc2cc3cc(O)c(=O)oc3cc2O1
CC50 (C8166): > 200000 nM

CCCCC/C=C/C=C/O[C@@]12[C@@H]([C@H]3OCO[C@@]3(C(C)=O)[C@H](OC(=O)CCCC)[C@H]1C)[C@@H]1O[C@]1(CO)[C@@H](O)[C@]1(O)C(=O)C(C)=C[C@H]12
IC50 [11]: 0.9 nM

CCCCCOC(=O)C[C@H](NP(=O)(CO[C@@H](CF)Cn1ccc2c(=O)[nH]c(N)nc21)N[C@@H](CC(=O)OCCCCC)C(=O)OCCCCC)C(=O)OCCCCC
IC50 [12]: 2000 nM

COC(=O)/C=C\c1c(-c2cccs2)[nH]c2ccccc12
IC50 [22]: 9.38 nM

C=CC(C)(C)c1cc2cc(C[C@@H](O)C(C)(C)O)c(O)cc2oc1=O
CC50 (C8166): > 200000 nM

COC(=O)/C=C/c1c(-c2cccs2)[nH]c2ccccc12
IC50 [22]: 720 nM

COc1cc2c(c(O)c1C)Oc1c(C=O)c(O)cc(C)c1C(=O)O2
IC50 [19]: 4650 nM

CCOc1ccc(S(=O)(=O)N2CCN(c3cc4c(cc3F)c(=O)c(C(=O)O)cn4CC)CC2)cc1
IC50 [8]: 80 nM

CCCCC/C=C/C=C/O[C@@]12[C@@H]([C@H]3OCO[C@@]3(C(C)=O)[C@H](OC(=O)CCCCC)[C@H]1C)[C@@H]1O[C@]1(CO)[C@@H](O)[C@]1(O)C(=O)C(C)=C[C@H]12
IC50 [11]: 0.9 nM

C=CC(CO)[C@@H]1C[C@H]2c3[nH]c4ccccc4c3CCN2C(=O)[C@@H]1CO (stereo partly drawn)
EC50 [21]: 12200 nM

CC1(C)Oc2cc3oc(=O)ccc3cc2[C@@H](O)[C@@H]1O
CC50 (C8166): > 200000 nM

O=C1CSC(c2ccc(O)cc2)N1c1nc2ccc(Cl)cc2s1 (stereo not drawn)
IC50 [13]: 300 nM
